Species: Rattus norvegicus
Experiment: DrugMatrix - Regimen: Daily Repeat
Format: toxicity, organism-based, Sprague-Dawley
Set-up: regimen Daily Repeat, gender Male, age 6-8 weeks
Details: in vivo, po, route oral GAVAGE, […]; for ABSOLUTE BASOPHIL / ABSOLUTE EOSINOPHIL / ABSOLUTE LYMPHOCYTE / ABSOLUTE MONOCYTE / ABSOLUTE SEGMENTED NEUTROPHIL / BASOPHIL / EOSINOPHIL / ERYTHROCYTE COUNT / HEMATOCRIT / HEMOGLOBIN / LEUKOCYTE COUNT / LYMPHOCYTE / MEAN CORPUSCULAR HEMOGLOBIN / MEAN CORPUSCULAR HEMOGLOBIN CONCENTRATION / MEAN CORPUSCULAR VOLUME / MONOCYTE / NEUTROPHIL / NUCLEATED RED BLOOD CELLS / PLATELET COUNT: tissue Blood; for ALANINE AMINOTRANSFERASE / ALBUMIN / ALKALINE PHOSPHATASE / ASPARTATE AMINOTRANSFERASE / BLOOD UREA NITROGEN / CARBON DIOXIDE / CHLORIDE / CHOLESTEROL / CREATINE PHOSPHOKINASE / CREATININE / GLUCOSE / LACTATE DEHYDROGENASE / LIPASE / PHOSPHORUS / POTASSIUM / SODIUM / TOTAL BILIRUBIN / TOTAL PROTEIN / URIC ACID: tissue Plasma
[1] = 10 mg/kg, 72 h, dose level Low, time 3 day
[2] = 10 mg/kg, 120 h, dose level Low, time 5 day
[3] = 25 mg/kg, 72 h, dose level High, time 3 day
[4] = 25 mg/kg, 120 h, dose level High, time 5 day

Sc1ncnc2nc[nH]c12 [MERCAPTOPURINE ANHYDROUS]
ABSOLUTE BASOPHIL [1]: 0 CELLS/uL | ABSOLUTE EOSINOPHIL [1]: 96.67 CELLS/uL | ABSOLUTE LYMPHOCYTE [1]: 10655 CELLS/uL | ABSOLUTE MONOCYTE [1]: 48.33 CELLS/uL | ABSOLUTE SEGMENTED NEUTROPHIL [1]: 1066.67 CELLS/uL | BASOPHIL [1]: 0% | EOSINOPHIL [1]: 0.67% | ERYTHROCYTE COUNT [1]: 5.09 x10E6/uL | HEMATOCRIT [1]: 31.73% | HEMOGLOBIN [1]: 12.87 G/DL | LEUKOCYTE COUNT [1]: 11.87 x10E3/uL | LYMPHOCYTE [1]: 90.33% | MEAN CORPUSCULAR HEMOGLOBIN [1]: 25.3 pg | MEAN CORPUSCULAR HEMOGLOBIN CONCENTRATION [1]: 40.6 G/DL | MEAN CORPUSCULAR VOLUME [1]: 62.4 fL | MONOCYTE [1]: 0.33% | NEUTROPHIL [1]: 8.67% | NUCLEATED RED BLOOD CELLS [1]: 0 /100WBC | PLATELET COUNT [1]: 1148.67 x10E3/uL | ALANINE AMINOTRANSFERASE [1]: 66.33 u/L | ALBUMIN [1]: 3.9 G/DL | ALKALINE PHOSPHATASE [1]: 364.67 u/L | ASPARTATE AMINOTRANSFERASE [1]: 83 u/L | BLOOD UREA NITROGEN [1]: 13 mg/dL | CARBON DIOXIDE [1]: 30.33 mmol/L | CHLORIDE [1]: 99 MEQ/L | CHOLESTEROL [1]: 73.67 mg/dL | CREATINE PHOSPHOKINASE [1]: 175.33 u/L | CREATININE [1]: 0.15 mg/dL | GLUCOSE [1]: 164.33 mg/dL | LACTATE DEHYDROGENASE [1]: 112.33 u/L | LIPASE [1]: 11.33 u/L | PHOSPHORUS [1]: 11.03 mg/dL | POTASSIUM [1]: 6.32 MEQ/L | SODIUM [1]: 142.6 MEQ/L | TOTAL BILIRUBIN [1]: 0.2 mg/dL | TOTAL PROTEIN [1]: 5.6 G/DL | URIC ACID [1]: 1.4 mg/dL | ABSOLUTE BASOPHIL [2]: 0 CELLS/uL | ABSOLUTE EOSINOPHIL [2]: 128 CELLS/uL | ABSOLUTE LYMPHOCYTE [2]: 12203 CELLS/uL | ABSOLUTE MONOCYTE [2]: 203 CELLS/uL | ABSOLUTE SEGMENTED NEUTROPHIL [2]: 1366 CELLS/uL | BASOPHIL [2]: 0% | EOSINOPHIL [2]: 0.67% | ERYTHROCYTE COUNT [2]: 5.76 x10E6/uL | HEMATOCRIT [2]: 36.7% | HEMOGLOBIN [2]: 14.3 G/DL | LEUKOCYTE COUNT [2]: 13.9 x10E3/uL | LYMPHOCYTE [2]: 88.67% | MEAN CORPUSCULAR HEMOGLOBIN [2]: 24.83 pg | MEAN CORPUSCULAR HEMOGLOBIN CONCENTRATION [2]: 38.97 G/DL | MEAN CORPUSCULAR VOLUME [2]: 63.73 fL | MONOCYTE [2]: 1.33% | NEUTROPHIL [2]: 9.33% | NUCLEATED RED BLOOD CELLS [2]: 0 /100WBC | PLATELET COUNT [2]: 1127 x10E3/uL | ALANINE AMINOTRANSFERASE [2]: 61 u/L | ALBUMIN [2]: 4.33 G/DL | ALKALINE PHOSPHATASE [2]: 384.33 u/L | ASPARTATE AMINOTRANSFERASE [2]: 75 u/L | BLOOD UREA NITROGEN [2]: 15 mg/dL | CARBON DIOXIDE [2]: 29.33 mmol/L | CHLORIDE [2]: 100.33 MEQ/L | CHOLESTEROL [2]: 73.67 mg/dL | CREATINE PHOSPHOKINASE [2]: 274.33 u/L | CREATININE [2]: 0.22 mg/dL | GLUCOSE [2]: 153.67 mg/dL | LACTATE DEHYDROGENASE [2]: 111 u/L | LIPASE [2]: 12.67 u/L | PHOSPHORUS [2]: 10.1 mg/dL | POTASSIUM [2]: 6.41 MEQ/L | SODIUM [2]: 142.27 MEQ/L | TOTAL BILIRUBIN [2]: 0.17 mg/dL | TOTAL PROTEIN [2]: 5.97 G/DL | URIC ACID [2]: 1.13 mg/dL | ABSOLUTE BASOPHIL [3]: 0 CELLS/uL | ABSOLUTE EOSINOPHIL [3]: 0 CELLS/uL | ABSOLUTE LYMPHOCYTE [3]: 6679.67 CELLS/uL | ABSOLUTE MONOCYTE [3]: 205.33 CELLS/uL | ABSOLUTE SEGMENTED NEUTROPHIL [3]: 481.67 CELLS/uL | BASOPHIL [3]: 0% | EOSINOPHIL [3]: 0% | ERYTHROCYTE COUNT [3]: 6.41 x10E6/uL | HEMATOCRIT [3]: 40.73% | HEMOGLOBIN [3]: 15.47 G/DL | LEUKOCYTE COUNT [3]: 7.37 x10E3/uL | LYMPHOCYTE [3]: 91% | MEAN CORPUSCULAR HEMOGLOBIN [3]: 24.1 pg | MEAN CORPUSCULAR HEMOGLOBIN CONCENTRATION [3]: 38 G/DL | MEAN CORPUSCULAR VOLUME [3]: 63.4 fL | MONOCYTE [3]: 2.67% | NEUTROPHIL [3]: 6.33% | NUCLEATED RED BLOOD CELLS [3]: 0.33 /100WBC | PLATELET COUNT [3]: 972 x10E3/uL | ALANINE AMINOTRANSFERASE [3]: 61.67 u/L | ALBUMIN [3]: 4.17 G/DL | ALKALINE PHOSPHATASE [3]: 420.33 u/L | ASPARTATE AMINOTRANSFERASE [3]: 105.67 u/L | BLOOD UREA NITROGEN [3]: 12 mg/dL | CARBON DIOXIDE [3]: 28 mmol/L | CHLORIDE [3]: 99.33 MEQ/L | CHOLESTEROL [3]: 77.33 mg/dL | CREATINE PHOSPHOKINASE [3]: 602.33 u/L | CREATININE [3]: 0.16 mg/dL | GLUCOSE [3]: 163 mg/dL | LACTATE DEHYDROGENASE [3]: 320 u/L | LIPASE [3]: 13 u/L | PHOSPHORUS [3]: 11.97 mg/dL | POTASSIUM [3]: 6.85 MEQ/L | SODIUM [3]: 141.03 MEQ/L | TOTAL BILIRUBIN [3]: 0.2 mg/dL | TOTAL PROTEIN [3]: 5.8 G/DL | URIC ACID [3]: 1.57 mg/dL | ABSOLUTE BASOPHIL [4]: 0 CELLS/uL | ABSOLUTE EOSINOPHIL [4]: 80.67 CELLS/uL | ABSOLUTE LYMPHOCYTE [4]: 12020.67 CELLS/uL | ABSOLUTE MONOCYTE [4]: 204.67 CELLS/uL | ABSOLUTE SEGMENTED NEUTROPHIL [4]: 927.33 CELLS/uL | BASOPHIL [4]: 0% | EOSINOPHIL [4]: 0.67% | ERYTHROCYTE COUNT [4]: 5.62 x10E6/uL | HEMATOCRIT [4]: 34.93% | HEMOGLOBIN [4]: 13.6 G/DL | LEUKOCYTE COUNT [4]: 13.23 x10E3/uL | LYMPHOCYTE [4]: 91% | MEAN CORPUSCULAR HEMOGLOBIN [4]: 24.33 pg | MEAN CORPUSCULAR HEMOGLOBIN CONCENTRATION [4]: 39 G/DL | MEAN CORPUSCULAR VOLUME [4]: 62.3 fL | MONOCYTE [4]: 1.33% | NEUTROPHIL [4]: 7% | NUCLEATED RED BLOOD CELLS [4]: 0 /100WBC | PLATELET COUNT [4]: 1431.67 x10E3/uL | ALANINE AMINOTRANSFERASE [4]: 58 u/L | ALBUMIN [4]: 4.4 G/DL | ALKALINE PHOSPHATASE [4]: 341 u/L | ASPARTATE AMINOTRANSFERASE [4]: 91.33 u/L | BLOOD UREA NITROGEN [4]: 10.67 mg/dL | CARBON DIOXIDE [4]: 25 mmol/L | CHLORIDE [4]: 100.33 MEQ/L | CHOLESTEROL [4]: 73 mg/dL | CREATINE PHOSPHOKINASE [4]: 601.67 u/L | CREATININE [4]: 0.13 mg/dL | GLUCOSE [4]: 164 mg/dL | LACTATE DEHYDROGENASE [4]: 169.67 u/L | LIPASE [4]: 12.33 u/L | PHOSPHORUS [4]: 11.07 mg/dL | POTASSIUM [4]: 7.18 MEQ/L | SODIUM [4]: 142.8 MEQ/L | TOTAL BILIRUBIN [4]: 0.17 mg/dL | TOTAL PROTEIN [4]: 6.07 G/DL | URIC ACID [4]: 1.5 mg/dL

From ChEMBL document CHEMBL3885881, “DrugMatrix”
